The values that follow come from patent US7232912B2, “Indazole compounds, pharmaceutical compositions, and methods for mediating or inhibiting cell proliferation” (Agouron Pharmaceuticals, Inc., priority 2000, dated 2007).

Assay type in all cases: biochemical
For assay [1], the target named is T1, FGFR1 tyrosine kinase (Homo sapiens, UniProt P11362, C488A/C584S/L457V).
T1 construct: the cytosolic domain of FGFR1 tyrosine kinase (amino acids 456–766); made in house; host or cells: Sf9 insect cells (baculovirus)
Briefly: Inhibition of phosphorylated FGF receptor tyrosine kinase activity. Particulars: for inhibition at 1 µM: read-out: FGF % Inhib. at 1 μM. The method in brief:
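Phosphorylated Sf9-expressed kinases, FGFR1 (aa 456–766) at 100 nM and LCK (aa 223–509) at 50 nM, with 100 μM ATP and poly(Glu,Tyr) 4:1 at 5.1 (FGFR) or 25 mM (LCK), pH 7.5, 37° C. Pyruvate kinase/LDH-coupled NADH loss read at 340 nm under initial-rate conditions; % inhibition versus 2% DMSO control.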

Assay [2] deals with T2, CDK2/cyclin A (Homo sapiens, UniProt P24941).
T2 construct: made in house; host or cells: CDK2: insect cells (baculovirus); cyclin A: E. coli
Put plainly: Inhibition of CDK2/Cyclin A Retinoblastoma Kinase Activity. Particulars: apparent Ki. The method in brief: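 Baculovirus-expressed CDK2 complexed with proteolyzed cyclin A, at 150 nM or 5 nM, phosphorylating an Rb fragment with 25 µM [32/33P]ATP in HEPES pH 7.4, 2% DMSO. Reactions run 20 min at 30°C, EDTA-stopped, filter-captured; apparent Ki from competitive or tight-binding competitive fits.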

Assay [3] has as its target CDK4/cyclin D3 (Homo sapiens, UniProt P11802). Briefly: Inhibition of CDK4/Cyclin D Retinoblastoma Kinase Activity. The settings on record: apparent Ki. The method in brief:
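Human CDK4/cyclin D3 (full-length or cyclin D3 1–264), insect-cell expressed, at 5 or 50 nM with His-tagged Rb 386–928 substrate, 25 μM ATP plus [32P/33P]ATP, pH 7.4, 2% DMSO, 30 °C for 20 min; tight binders used 5 nM enzyme for 60 min. Filter-captured phospho-Rb quantified by phosphorimager. Apparent Ki from competitive or tight-binding inhibition fits.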

T1 sequence (P11362 456-766 L457V/C488A/C584S): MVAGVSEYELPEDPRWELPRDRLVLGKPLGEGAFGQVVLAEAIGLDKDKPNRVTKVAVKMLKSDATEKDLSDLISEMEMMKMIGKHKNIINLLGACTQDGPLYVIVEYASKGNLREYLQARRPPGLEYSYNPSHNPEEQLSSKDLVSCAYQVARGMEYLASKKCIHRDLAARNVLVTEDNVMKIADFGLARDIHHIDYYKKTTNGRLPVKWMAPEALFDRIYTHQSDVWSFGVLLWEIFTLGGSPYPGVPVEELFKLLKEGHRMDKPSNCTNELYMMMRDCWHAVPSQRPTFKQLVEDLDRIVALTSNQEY
CDK4/cyclin D3, sequence (P11802 2-303 limits assumed): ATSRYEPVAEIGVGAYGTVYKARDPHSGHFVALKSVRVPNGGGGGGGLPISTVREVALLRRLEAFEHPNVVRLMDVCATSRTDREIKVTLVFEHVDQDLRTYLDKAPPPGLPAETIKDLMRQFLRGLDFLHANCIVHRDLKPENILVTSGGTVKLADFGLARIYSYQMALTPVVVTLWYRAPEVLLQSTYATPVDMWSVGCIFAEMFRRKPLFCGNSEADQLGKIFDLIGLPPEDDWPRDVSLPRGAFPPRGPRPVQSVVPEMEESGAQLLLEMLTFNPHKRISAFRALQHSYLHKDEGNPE
CDK4/cyclin D3, sequence (P30281 1-264 limits assumed, further chain): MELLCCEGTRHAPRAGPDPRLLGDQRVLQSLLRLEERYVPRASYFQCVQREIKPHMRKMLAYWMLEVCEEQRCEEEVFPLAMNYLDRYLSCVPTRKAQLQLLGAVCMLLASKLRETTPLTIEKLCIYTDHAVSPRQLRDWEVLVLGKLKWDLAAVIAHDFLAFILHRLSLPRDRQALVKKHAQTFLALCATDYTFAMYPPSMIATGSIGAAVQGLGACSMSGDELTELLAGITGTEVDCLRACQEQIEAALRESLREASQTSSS

As to `CN(C)Cc1cccc2[nH]c(-c3n[nH]c4ccc(-c5cncc6ccccc56)cc34)nc12` [Example 31, [2-(5-Isoquinolin-4-yl-1H-indazol-3-yl)-1H-benzoimidazol-4-ylmethyl]-dimethyl-amine], the inhibition at 1 µM in assay [1] was 55.5%. Further, the Ki in assay [2] is 0.21 nM; in assay [3], 0.37 nM.

In the case of `CCc1c(-c2ccncc2)cncc1-c1ccc2[nH]nc(-c3nc4ccccc4[nH]3)c2c1` [Example 61, 5-[3-(1H-Benzoimidazol-2yl)-1H-indazol-5-yl]-4ethyl-[3,4′]bipyridinyl], the figures for the Ki in assay [1], in assay [2] and in assay [3] were 480 nM, 1.2 nM and 17 nM, respectively. In addition, the inhibition at 1 µM in assay [1] came to 60.7%.
